Laboratory results published in patent publication US20240415923A1, “RNA-Dependent RNA Polymerase Inhibitory Compounds, Uses in Managing Viral Infections, and Pharmaceutical Compositions” (priority 2023, published 2024).
Structures can show the parent of a compound that is named as a salt. Starred links: 1 amine or outer side, 2 acyl side, 3 side chain; linkers in the order of their positions; H or OH if unused. Positions of bridges follow the written chain, without caps; N, C: chain ends. Non-standard residues stand in square brackets, D forms with d. Residues, ends and D or L forms follow the SMILES beside them. *: point of attachment. hTyr(3S-OH,4S-OH,3'-OSO3H) = N[C@H](C(=O)O)[C@H](O)[C@@H](O)c1ccc(O)c(OS(=O)(=O)O)c1; Orn(4R-OH,5R-OH) = O=C([C@H](C[C@@H](O)[C@@H](O)N[*:3])N[*:1])[*:2]; Pro(3S-OH,4S-Me) = C[C@H]1CN[C@H](C(=O)O)[C@H]1O; X1 = CCCCCOc1ccc(-c2cc(-c3ccc(C(=O)*)cc3)no2)cc1; Gln(3R-OH) = NC(=O)C[C@@H](O)[C@H](N)C(=O)O; Hyp = O=C(O)[C@@H]1C[C@@H](O)CN1

Key:
NiV polymerase (L-P) = NiV polymerase (L-P) (Nipah virus, UniProt Q997F0); type: biochemical; details: 1 mM
RSV polymerase (L-P) [1] = target: T1, RSV polymerase (L-P) (Human respiratory syncytial virus A, UniProt P28887); test: in vitro primer-based RNA synthesis assay, TrC12 template and Tr4 primer; type: biochemical; details: 1 mM, TrC12 template, FIG. 3B
T1 sequence (P03421 whole entry): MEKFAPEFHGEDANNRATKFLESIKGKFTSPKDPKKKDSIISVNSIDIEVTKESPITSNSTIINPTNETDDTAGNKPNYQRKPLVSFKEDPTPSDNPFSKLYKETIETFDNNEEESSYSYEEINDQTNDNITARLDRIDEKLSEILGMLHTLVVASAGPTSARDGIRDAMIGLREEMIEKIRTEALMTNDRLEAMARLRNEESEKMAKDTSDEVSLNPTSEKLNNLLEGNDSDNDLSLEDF
T1 sequence (P28887 whole entry): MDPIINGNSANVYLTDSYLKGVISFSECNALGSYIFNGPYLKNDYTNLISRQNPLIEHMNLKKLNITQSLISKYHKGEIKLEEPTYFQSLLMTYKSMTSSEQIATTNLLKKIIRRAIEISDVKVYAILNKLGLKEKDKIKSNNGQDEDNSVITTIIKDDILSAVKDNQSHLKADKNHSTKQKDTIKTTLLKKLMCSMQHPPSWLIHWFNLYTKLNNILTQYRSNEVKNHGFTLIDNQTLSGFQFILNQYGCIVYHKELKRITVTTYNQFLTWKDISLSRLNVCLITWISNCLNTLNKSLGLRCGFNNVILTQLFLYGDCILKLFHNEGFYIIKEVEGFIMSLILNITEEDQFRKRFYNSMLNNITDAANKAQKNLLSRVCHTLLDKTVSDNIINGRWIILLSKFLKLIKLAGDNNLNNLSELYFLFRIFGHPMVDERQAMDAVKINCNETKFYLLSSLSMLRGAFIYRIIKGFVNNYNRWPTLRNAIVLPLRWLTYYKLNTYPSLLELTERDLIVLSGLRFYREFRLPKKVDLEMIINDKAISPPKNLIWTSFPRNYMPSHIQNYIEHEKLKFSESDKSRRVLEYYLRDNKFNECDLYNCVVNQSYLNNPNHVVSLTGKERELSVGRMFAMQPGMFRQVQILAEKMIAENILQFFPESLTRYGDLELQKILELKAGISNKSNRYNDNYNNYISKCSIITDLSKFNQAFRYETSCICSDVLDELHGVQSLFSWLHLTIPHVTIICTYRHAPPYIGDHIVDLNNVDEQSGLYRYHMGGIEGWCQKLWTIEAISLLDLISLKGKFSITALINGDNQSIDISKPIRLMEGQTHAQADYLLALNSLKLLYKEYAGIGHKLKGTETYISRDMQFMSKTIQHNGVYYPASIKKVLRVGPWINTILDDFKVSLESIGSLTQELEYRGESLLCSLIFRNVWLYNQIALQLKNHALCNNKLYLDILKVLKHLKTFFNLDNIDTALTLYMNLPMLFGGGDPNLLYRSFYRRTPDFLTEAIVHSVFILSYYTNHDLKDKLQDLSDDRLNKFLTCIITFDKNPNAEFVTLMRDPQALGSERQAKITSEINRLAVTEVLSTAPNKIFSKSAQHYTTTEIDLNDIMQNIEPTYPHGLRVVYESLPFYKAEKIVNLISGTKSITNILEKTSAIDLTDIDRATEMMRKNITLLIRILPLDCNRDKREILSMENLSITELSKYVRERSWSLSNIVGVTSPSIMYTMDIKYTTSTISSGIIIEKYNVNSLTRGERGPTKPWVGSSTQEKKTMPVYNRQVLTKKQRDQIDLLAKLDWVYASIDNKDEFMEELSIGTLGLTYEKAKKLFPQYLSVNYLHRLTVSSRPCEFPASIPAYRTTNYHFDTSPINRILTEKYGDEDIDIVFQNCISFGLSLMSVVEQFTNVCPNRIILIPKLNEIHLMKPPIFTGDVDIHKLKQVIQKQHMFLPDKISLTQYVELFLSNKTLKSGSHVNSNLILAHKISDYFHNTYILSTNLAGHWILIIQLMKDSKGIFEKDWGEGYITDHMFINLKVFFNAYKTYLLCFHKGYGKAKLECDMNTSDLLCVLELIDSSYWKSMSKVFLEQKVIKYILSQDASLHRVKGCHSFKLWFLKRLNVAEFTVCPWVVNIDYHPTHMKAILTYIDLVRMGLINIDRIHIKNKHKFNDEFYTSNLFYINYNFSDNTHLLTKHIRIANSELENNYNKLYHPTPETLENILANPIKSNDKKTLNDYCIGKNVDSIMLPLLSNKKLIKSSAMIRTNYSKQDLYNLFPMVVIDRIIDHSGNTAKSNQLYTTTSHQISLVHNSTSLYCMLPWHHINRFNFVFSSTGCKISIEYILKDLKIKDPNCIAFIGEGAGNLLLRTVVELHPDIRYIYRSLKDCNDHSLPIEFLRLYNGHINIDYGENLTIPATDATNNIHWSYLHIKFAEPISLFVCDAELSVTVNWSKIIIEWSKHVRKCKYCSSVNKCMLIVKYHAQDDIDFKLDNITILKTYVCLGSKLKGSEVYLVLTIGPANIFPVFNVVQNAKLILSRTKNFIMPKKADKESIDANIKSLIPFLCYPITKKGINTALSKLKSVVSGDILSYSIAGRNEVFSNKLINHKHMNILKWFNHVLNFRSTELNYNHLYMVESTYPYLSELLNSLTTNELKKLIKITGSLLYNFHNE

[2] = target: T2, SARS-COV2 polymerase (Nsp7-Nsp8-Nsp12) (Severe acute respiratory syndrome coronavirus 2, UniProt P0DTD1); type: biochemical, severe acute respiratory syndrome coronavirus 2 (SARS-COV2); details: 1 mM
T2 construct: SARS-COV2 polymerase (Nsp7-Nsp8-Nsp12); made in house

VSBV polymerase (L-P) = type: biochemical, variegated squirrel bornavirus (VSBV); details: 1 mM
[3] = target: VSV polymerase (L-P1-106) (Vesicular stomatitis Indiana virus, UniProt P03523); type: biochemical; details: 1 mM
VSV polymerase (L-P1-106), sequence (P03523 whole entry, looked up): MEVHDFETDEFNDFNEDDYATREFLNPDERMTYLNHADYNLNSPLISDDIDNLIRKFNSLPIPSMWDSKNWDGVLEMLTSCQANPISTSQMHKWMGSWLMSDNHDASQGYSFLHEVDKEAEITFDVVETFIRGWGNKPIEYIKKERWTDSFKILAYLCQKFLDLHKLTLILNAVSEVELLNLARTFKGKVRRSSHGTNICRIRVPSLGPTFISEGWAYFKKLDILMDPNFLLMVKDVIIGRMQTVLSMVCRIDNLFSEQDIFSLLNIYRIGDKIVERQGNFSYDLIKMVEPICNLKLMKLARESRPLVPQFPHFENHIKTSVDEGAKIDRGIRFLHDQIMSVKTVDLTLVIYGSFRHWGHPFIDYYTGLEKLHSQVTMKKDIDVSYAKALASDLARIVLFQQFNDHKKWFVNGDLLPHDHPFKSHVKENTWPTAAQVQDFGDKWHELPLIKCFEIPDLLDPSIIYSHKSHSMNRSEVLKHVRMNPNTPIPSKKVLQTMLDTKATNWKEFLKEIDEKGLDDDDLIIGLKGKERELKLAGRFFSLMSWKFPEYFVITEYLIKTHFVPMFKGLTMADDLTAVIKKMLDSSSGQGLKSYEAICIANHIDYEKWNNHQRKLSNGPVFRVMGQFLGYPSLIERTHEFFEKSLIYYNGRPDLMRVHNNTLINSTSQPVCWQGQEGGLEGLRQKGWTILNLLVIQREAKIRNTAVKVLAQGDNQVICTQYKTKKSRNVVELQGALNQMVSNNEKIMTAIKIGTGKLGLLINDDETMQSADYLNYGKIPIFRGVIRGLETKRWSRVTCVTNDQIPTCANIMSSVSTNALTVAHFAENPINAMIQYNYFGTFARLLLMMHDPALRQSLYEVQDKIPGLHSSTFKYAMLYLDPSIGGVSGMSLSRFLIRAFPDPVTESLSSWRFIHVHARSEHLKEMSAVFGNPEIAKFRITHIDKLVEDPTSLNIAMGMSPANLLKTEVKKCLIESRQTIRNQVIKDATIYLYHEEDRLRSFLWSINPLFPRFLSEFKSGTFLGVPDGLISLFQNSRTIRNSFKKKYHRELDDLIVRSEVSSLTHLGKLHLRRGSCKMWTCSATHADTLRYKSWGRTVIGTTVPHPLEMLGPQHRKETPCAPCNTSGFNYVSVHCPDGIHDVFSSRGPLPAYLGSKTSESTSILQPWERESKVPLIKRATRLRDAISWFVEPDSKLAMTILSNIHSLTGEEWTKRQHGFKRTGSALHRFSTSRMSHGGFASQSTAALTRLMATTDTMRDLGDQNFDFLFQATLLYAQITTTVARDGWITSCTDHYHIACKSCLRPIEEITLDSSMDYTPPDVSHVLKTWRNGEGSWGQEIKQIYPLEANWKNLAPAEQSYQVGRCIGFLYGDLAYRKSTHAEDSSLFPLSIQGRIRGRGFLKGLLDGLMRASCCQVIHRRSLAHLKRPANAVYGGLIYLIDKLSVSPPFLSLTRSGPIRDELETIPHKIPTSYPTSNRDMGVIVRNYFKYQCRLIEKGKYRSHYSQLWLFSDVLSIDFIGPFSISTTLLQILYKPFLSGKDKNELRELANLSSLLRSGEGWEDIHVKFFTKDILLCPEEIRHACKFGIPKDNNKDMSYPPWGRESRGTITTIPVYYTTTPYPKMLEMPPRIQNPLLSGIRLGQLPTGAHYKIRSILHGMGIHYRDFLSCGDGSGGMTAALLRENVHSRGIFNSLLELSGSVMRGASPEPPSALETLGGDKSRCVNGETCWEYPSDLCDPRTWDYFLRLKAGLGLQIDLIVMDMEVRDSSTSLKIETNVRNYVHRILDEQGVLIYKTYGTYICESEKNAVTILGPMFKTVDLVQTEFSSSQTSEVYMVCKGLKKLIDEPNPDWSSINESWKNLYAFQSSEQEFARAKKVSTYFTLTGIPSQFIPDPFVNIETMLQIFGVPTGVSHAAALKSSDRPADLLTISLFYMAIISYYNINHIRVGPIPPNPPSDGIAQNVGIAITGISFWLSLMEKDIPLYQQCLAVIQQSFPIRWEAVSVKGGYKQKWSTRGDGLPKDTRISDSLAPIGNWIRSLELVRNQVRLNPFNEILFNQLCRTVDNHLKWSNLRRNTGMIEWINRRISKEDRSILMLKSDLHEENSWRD

RSV polymerase (L-P) [4] = target: T1, RSV polymerase (L-P); test: in vitro de novo RNA synthesis assay, TrC12 template; type: biochemical

Row | Structure (SMILES) | inhibition of RNA synthesis activity of NiV polymerase (NiV polymerase (L-P)) | primer-based RNA synthesis activity of RSV polymerase, rank among the tested molecules (RSV polymerase (L-P) [1]) | inhibition of RNA synthesis activity of SARS-COV2 polymerase [2] | inhibition of RNA synthesis activity of VSBV polymerase (VSBV polymerase (L-P)) | inhibition of RNA synthesis activity of VSV polymerase [3] | impact on the RSV polymerase activity in time course (RSV polymerase (L-P) [4]; 0, 25 and 50 μM, FIG. 5A) | activity of RSV polymerase in time course at 50 μM (RSV polymerase (L-P) [4]; 50 μM versus 0 and 25 μM, FIG. 5A) | RSV polymerase activity retained relative to the control group (RSV polymerase (L-P) [4]; 1 mM small molecule in 10% DMSO, 10% DMSO negative control, FIG. 2) | inhibition of RSV polymerase in the in vitro assay (in words) (RSV polymerase (L-P) [4]; 1 mM, FIG. 2) | de novo RNA synthesis activity of RSV polymerase, rank among the tested molecules (RSV polymerase (L-P) [4]; 1 mM, FIG. 3A, compared with 10 other molecules)
1 | CCCCCOc1ccc(-c2cc(-c3ccc(C(=O)N[C@H]4C[C@@H](O)[C@@H](O)NC(=O)[C@@H]5[C@@H](O)[C@@H](C)CN5C(=O)[C@H]([C@H](O)CC(N)=O)NC(=O)[C@H]([C@H](O)[C@@H](O)c5ccc(O)c(OS(=O)(=O)O)c5)NC(=O)[C@@H]5C[C@@H](O)CN5C(=O)[C@H]([C@@H](C)O)NC4=O)cc3)no2)cc1 [Micafungin, 5-(2-(20-(3-amino-1-hydroxy-3-oxopropyl)-2,11,12,15-tetrahydroxy-6-(1-hydroxyethyl)-16-methyl-5,8,14,19,22,25-hexaoxo-9-(4-(5-(4-(pentyloxy)phenyl)isoxazol-3-yl)benzamido)tetracosahydro-1H-dipyrrolo[2,1-c: 2′,1′-1][1,4,7,10,13,16]hexaazacyclohenicosin-23-yl)-1,2-dihydroxyethyl)-2-hydroxyphenyl hydrogen sulfate] (X1-[Orn(4R-OH,5R-OH)]T[Hyp][hTyr(3S-OH,4S-OH,3'-OSO3H)][Gln(3R-OH)][Pro(3S-OH,4S-Me)]; lactam 1-C) | inhibit | best inhibitors | inhibit | inhibit | inhibit | time and concentration dependent | lowest at all time points | 29.6% | significant inhibitory activity | lowest
2 | Cc1ccc(-n2[nH]c(C)c(N=Nc3cccc(-c4cccc(-c5nnn[nH]5)c4)c3O)c2=O)cc1C [Totrombopag, 2-(3,4-dimethylphenyl)-4-((2-hydroxy-3′-(1H-tetrazol-5-yl)-[1,1′-biphenyl]-3-yl)diazenyl)-5-methyl-1,2-dihydro-3H-pyrazol-3-one] | inhibit | – | inhibit | inhibit | inhibit | – | – | – | – | –
3 | CN1C(N)=NC(C)(c2cc(NC(=O)c3ccc(F)cn3)ccc2F)CS1(=O)=O (stereo not drawn) [Verubecestat, N-(3-(3-amino-2,5-dimethyl-1,1-dioxido-5,6-dihydro-2H-1,2,4-thiadiazin-5-yl)-4-fluorophenyl)-5-fluoropicolinamide] | – | – | – | – | – | – | – | – | showed inhibition | –
